# Columns and labels:
# [1] = system: Root Knot (Meloidogyne incognita); assay: Multiple nematode species on cotton, soil counts: Root Knot; assay type: in vivo; details: 0.15 mg ai/seed, measured 71 days after planting
# [2] = system: Reniform Nematode (Rotylenchulus reniformis); assay: Reniform Nematode efficacy on soybean, soil nematode count compared to check; assay type: in vivo; details: 0.075 mg/seed
# [3] = system: Lesion Nematode (Pratylenchus Spp.); assay: Lesion Nematode control in corn, stained root tissue; assay type: in vivo
# Source text: Corn root tissue was stained using acid fuchsin/methyl blue to assess for endoparasitic, endo/ectoparasitic, and semi endoparasitic nematodes that have entered the root system, using standard methodology. The effect of pydiflumetofen was compared to fluopyram.
# [4] = system: Root Knot Nematode (Meloidogyne incognita); assay: Root Knot Nematode control on soybean, gall count and rating; assay type: in vivo
# Source text: Root Knot Nematode (Meloidogyne incognita) Methodology for Evaluating Root Knot Nematode Gall Count and Rating Process The roots of the plants were removed from the soil. The root system was then sprayed with water to remove remaining soil. The roots were spread out on a tray or counter top and the rate of galling or place each root system under a magnification light and count galls. For gall assessment ratings, a rating on a scale of 0-10 scale was given when compared against a standard gall rating chart. Gall count was also assessed.
# [5] = system: Soybean Cyst Nematode (Heterodera glycines) eggs; assay: Evaluation of Soybean Cyst Nematode egg hatch; assay type: cell-based
# Lance (Hoplolaimus Spp.) = assay: In vitro dose response assay against Lance nematode; assay type: cell-based
# Source text: (§1) Lance (Hoplolaimus Spp.) and Sting (Belonolaimus longicaudatus) Nematode In Vitro Assay Measuring Dose Response of APN Against Sting and Lance Nematode.
# [6] = system: Reniform Nematode (Rotylenchulus reniformis); assay: Multiple nematode species on cotton, soil counts: Reniform; assay type: in vivo; details: 0.15 mg ai/seed, measured 71 days after planting
# [7] = system: Root Knot Nematode (Meloidogyne incognita) eggs; assay: Evaluation of Root Knot Nematode egg hatch; assay type: cell-based
# [8] = system: Sting (Belonolaimus longicaudatus); assay: In vitro dose response assay against Sting nematode; assay type: cell-based
# Source text: as §1
# [9] = system: Spiral (Helicotylenchus Spp.); assay: Multiple nematode species on cotton, soil counts: Spiral; assay type: in vivo; details: 0.15 mg ai/seed, measured 71 days after planting
# [10] = system: Soybean Cyst Nematode (Heterodera glycines) on Soybean; assay: Soybean yield data, seed treatment (trials 4-6); assay type: in vivo; details: 0.075 mg ai/seed
# [11] = system: Soybean Cyst Nematode (Heterodera glycines); assay: Control of Heterodera glycines on soybean in a greenhouse, seed treatment; assay type: in vivo
# Source text: Methodology for evaluating control of Heterodera glycines at all life stages on soybean in a greenhouse.
# Five thousand Heterodera glycine eggs where placed in a 1 inch hole in the center of 3.5 inch×8 inch deep plastic pots. The seeds were inoculated first when applying the active compound as a seed treatment. The treated seed was placed in the center hole and covered up with sterilized top soil. Each pot was watered by hand, with approximately 50 mls of water applied to each pot once per day. 35 day after planting, the soil was gently rinsed from the roots of the emerged plants and place in a 20 mesh over a 60-mesh sieve. The root system was blasted with water to remove mature females. The 20-mesh sieve removed. The females were washed to the bottom of the 60-mesh sieve and rinsed into a tube for counting under a stereoscope. For root penetration experiments, the roots of the plants were removed from the pots at 7-14 days after planting, rinsed clean of soil, and stained with acid fuchsin stain. Stained nematodes in the roots were counted using an electronic stereoscope.
# The action of pydiflumetofen against soybean syst nematode (SCN; Heterodera glycines) and its effect on soybean plants was assessed out as described previously, and compared to that of fluopyram. The number of SCN per stained root was counted, and the mean root weight per plant calculated, thus enabling the number of SCN per gram of root to be calculated.
# [12] = system: Lesion Nematode (Pratylenchus brachyurus); assay: Lesion Nematode efficacy on soybean, stained roots; assay type: in vivo
# Source text: Soybean plant roots were stained using acid fuchsin/methyl blue to assess for endoparasitic, endo/ectoparasitic, and semi endoparasitic nematodes that have entered the root system, using standard methodology.
# [13] = Series 1 Trial 1, 0.0375 mg ai/seed
# [14] = Series 1 Trial 1, 0.075 mg ai/seed
# [15] = Series 1 Trial 1, 0.15 mg ai/seed
# [16] = Series 1 Trial 2, 0.075 mg ai/seed
# [17] = Series 1 Trial 2, 0.15 mg ai/seed
# [18] = Series 2 Trial 1, 0.075 mg ai/seed
# [19] = Series 2 Trial 1, 0.15 mg ai/seed
# [20] = Series 2 Trial 1, 0.30 mg ai/seed
# [21] = Sodium hypochlorite 30%, no ppm concentration printed
compound,measurement,setting,value
"CON(C(=O)c1cn(C)nc1C(F)F)C(C)Cc1c(Cl)cc(Cl)cc1Cl (stereo not shown) [Pydiflumetofen, 3-(difluoromethyl)-N-methoxy-1-methyl-N-[1-methyl-2-(2,4,6-trichloro-phenyl)ethyl]-1H-pyrazole-4-carboxamide]",Juveniles per 100 cc s Soil,[1],132
same,Nematode Reduction Compared to Check (mean difference in soil nematode count),[2],−2912
same,Effect on nematode numbers (in words),[3],reduce nematode numbers
same,Lesion Nematode per gram of Root,[3]; 0.4 mg ai/seed,389
same,Lesion Nematodes within root system,[3]; 0.4 mg ai/seed,302
same,Lesion Nematode per gram of Root,[3]; 0.5 mg ai/seed,105
same,Lesion Nematodes within root system,[3]; 0.5 mg ai/seed,124
same,Root Knot Nematode Galling (0-10 scale),[4]; 0.075 mg ai/seed,6.8
same,Root Knot Nematode Galls per Root,[4]; 0.075 mg ai/seed,52.6
same,Root Knot Nematode Galling (0-10 scale),[4]; 0.15 mg ai/seed,1.5
same,Root Knot Nematode Galls per Root,[4]; 0.15 mg ai/seed,11.2
same,Percent Egg Hatch Reduction,[5]; 1 ppm,4.7%
same,Percent Egg Hatch Reduction,[5]; 10 ppm,34.7%
same,Percent Egg Hatch Reduction,[5]; 100 ppm,64.0%
same,Percentage of Dead Nematodes,"Lance (Hoplolaimus Spp.); exposure 1 hours, 0.1 ppm",12.7 Percentage
same,Percentage of Dead Nematodes,"Lance (Hoplolaimus Spp.); exposure 1 hours, 10 ppm",37.9 Percentage
same,Percentage of Dead Nematodes,"Lance (Hoplolaimus Spp.); exposure 1 hours, 100 ppm",74.8 Percentage
same,Percentage of Dead Nematodes,"Lance (Hoplolaimus Spp.); exposure 24 hours, 0.1 ppm",68.5 Percentage
same,Percentage of Dead Nematodes,"Lance (Hoplolaimus Spp.); exposure 24 hours, 10 ppm",81.6 Percentage
same,Percentage of Dead Nematodes,"Lance (Hoplolaimus Spp.); exposure 24 hours, 100 ppm",23.9 Percentage
same,Percentage of Dead Nematodes,"Lance (Hoplolaimus Spp.); exposure 48 hours, 0.1 ppm",41 d Percentage
same,Percentage of Dead Nematodes,"Lance (Hoplolaimus Spp.); exposure 48 hours, 10 ppm",93.8 Percentage
same,Percentage of Dead Nematodes,"Lance (Hoplolaimus Spp.); exposure 48 hours, 100 ppm",74.8 Percentage
same,Percentage of Dead Nematodes,"Lance (Hoplolaimus Spp.); exposure 72 hours, 0.1 ppm",32.9 Percentage
same,Percentage of Dead Nematodes,"Lance (Hoplolaimus Spp.); exposure 72 hours, 10 ppm",93.8 Percentage
same,Percentage of Dead Nematodes,"Lance (Hoplolaimus Spp.); exposure 72 hours, 100 ppm",77.5 Percentage
same,Juveniles per 100 cc s Soil,[6]; Reniform (adult),2.8
same,Juveniles per 100 cc s Soil,[6]; Reniform (juvenile),1752
same,Percent Egg Hatch Reduction,[7]; 1 ppm,1.7%
same,Percent Egg Hatch Reduction,[7]; 10 ppm,12.8%
same,Percent Egg Hatch Reduction,[7]; 100 ppm,30.6%
same,Percentage of Dead Nematodes,"[8]; exposure 1 hours, 0.1 ppm",6.3 Percentage
same,Percentage of Dead Nematodes,"[8]; exposure 1 hours, 10 ppm",5.9 Percentage
same,Percentage of Dead Nematodes,"[8]; exposure 1 hours, 100 ppm",11.3 Percentage
same,Percentage of Dead Nematodes,"[8]; exposure 24 hours, 0.1 ppm",4.7 Percentage
same,Percentage of Dead Nematodes,"[8]; exposure 24 hours, 10 ppm",59.5 Percentage
same,Percentage of Dead Nematodes,"[8]; exposure 24 hours, 100 ppm",42.9 Percentage
same,Percentage of Dead Nematodes,"[8]; exposure 48 hours, 0.1 ppm",29.3 Percentage
same,Percentage of Dead Nematodes,"[8]; exposure 48 hours, 10 ppm",56.3 Percentage
same,Percentage of Dead Nematodes,"[8]; exposure 48 hours, 100 ppm",58 Percentage
same,Percentage of Dead Nematodes,"[8]; exposure 72 hours, 0.1 ppm",34.9 Percentage
same,Percentage of Dead Nematodes,"[8]; exposure 72 hours, 10 ppm",81.1 Percentage
same,Percentage of Dead Nematodes,"[8]; exposure 72 hours, 100 ppm",97.1 Percentage
same,Juveniles per 100 cc s Soil,[9],254
same,Mean Difference in Yield Compared to Checks,[10]; Trial 4,+3.0 Bu/Ac
same,Mean Difference in Yield Compared to Checks,[10]; Trial 5,+3.7 Bu/Ac
same,Mean Difference in Yield Compared to Checks,[10]; Trial 6,+7.5 Bu/Ac
same,Cysts per Gram of Root,[11]; [13],147.9
same,Mature SCN Cysts,[11]; [13],24.0
same,Stained Juveniles w/l root,[11]; [13],22.5
same,Cysts per Gram of Root,[11]; [14],167.5
same,Mature SCN Cysts,[11]; [14],21.3
same,Stained Juveniles w/l root,[11]; [14],19.0
same,Cysts per Gram of Root,[11]; [15],105.0
same,Mature SCN Cysts,[11]; [15],16.3
same,Stained Juveniles w/l root,[11]; [15],12.5
same,SCN Within Root,[11]; [16],17.5
same,Soybean Cyst Nematodes per Gram of Root,[11]; [16],128
same,SCN Within Root,[11]; [17],5.0
same,Soybean Cyst Nematodes per Gram of Root,[11]; [17],29.6
same,SCN Cysts per Root,"[11]; Series 1 Trial 3, 0.15 mg ai/seed",10.4
same,SCN Cysts per Root,"[11]; Series 1 Trial 3, 0.30 mg ai/seed",5.5
same,Mean SCN/root,[11]; [18],52.3
same,No. SCN/g root tissue,[11]; [18],30.4
same,Mean SCN/root,[11]; [19],37.0
same,No. SCN/g root tissue,[11]; [19],16.9
same,Mean SCN/root,[11]; [20],35.2
same,No. SCN/g root tissue,[11]; [20],15.2
same,Lesion Nematode per gram of Root,[12]; 0.0375 mg ai/seed,164.3
same,Lesion Nematodes w/l root,[12]; 0.0375 mg ai/seed,44.9
same,Lesion Nematode per gram of Root,[12]; 0.075 mg ai/seed,141.5
same,Lesion Nematodes w/l root,[12]; 0.075 mg ai/seed,38.3
same,Lesion Nematode per gram of Root,[12]; 0.15 mg ai/seed,105.3
same,Lesion Nematodes w/l root,[12]; 0.15 mg ai/seed,32.3
"OCl [Sodium hypochlorite 30%, Sodium hypochlorite]",Percent Egg Hatch Reduction,[5]; [21],100.0%
same,Percent Egg Hatch Reduction,[7]; [21],100.0%
c1ccc(-c2noc(-c3cccs3)n2)cc1 [Tioxazafen],Percent Egg Hatch Reduction,[5]; 1 ppm,0.4%
same,Percent Egg Hatch Reduction,[5]; 10 ppm,−0.5%
same,Percent Egg Hatch Reduction,[5]; 100 ppm,−0.9%
same,Percent Egg Hatch Reduction,[7]; 1 ppm,−1.9%
same,Percent Egg Hatch Reduction,[7]; 10 ppm,−0.8%
same,Percent Egg Hatch Reduction,[7]; 100 ppm,4.4%
